Bridge positions count the residues as written; N and C are the ends. Square brackets hold non-standard residues; d marks the D form. Ends that are not written are not given here. Peptide text beside a SMILES is read from it.
How the values were obtained:
[1] = Anti-obesity therapy, regular diet-fed old mice; parameters: species or system C57BL/6 mice; details: mouse, in vivo
adipose tissue = experiment: Histopathological analysis of tissues from treated mice; details: mouse, in vivo
Experimental: (§1) Staining of formalin-fixed, paraffin-embedded mouse tissue sections was performed (Pasqualini & Rouslahti, 1996; Pasqualini et al., 2000). For phage-peptide immunolocalization, 10^10 TU of […] (SEQ ID NO:81)-phage or a control insertless phage was injected intravenously. Phage immunohistochemistry was performed using a rabbit anti-fd phage antibody (Sigma Chemicals, St. Louis, Mo.) used at 1:1,000 dilution and a secondary horseradish peroxidase (HRP)-conjugated antibody. Apoptosis was detected using standard TUNEL immunohistochemistry and an HRP-conjugated antibody. For in vivo peptide homing validation, stocks of 5-carboxyfluorescein (FITC)-conjugated […] (SEQ ID NO:81) or CARAC (SEQ ID NO:71) were chemically synthesized, cyclized using the terminal cysteines and HPLC-purified to >90% purity by Anaspec (San Jose, Calif.). Lyophilized peptides were dissolved in DMSO to a concentration of 20 mM. Ten μl of 1 mM peptide-FITC solution in PBS was injected 5 min prior to tissue extraction. For blood vessel localization, 10 μl of 2 mg/ml of rhodamine-conjugated lectin-I (RL-1102, Vector Laboratories, Burlingame, Calif.) was co-injected. All immunohistochemistry and FITC immunofluorescence images were captured using an Olympus IX70 microscope and digital camera setup (Melville, N.Y.).

[2] = Injection into genetically obese mice; format: in vivo; details: not normal obese mice
MDA-MB-435 cells = experiment: Targeted phage vector transduction and peptide inhibition in cell culture; format: cell-based, human; details: cells pre-incubated with synthetic peptide
Experimental: (§2) Targeted phage vector transduction and specific inhibition by using synthetic peptides. MDA-MB-435 breast cancer and KS1767 Karposi's sarcoma cells were cultured on 8-well chamber glass slides. The culture media was replaced by 200 μl of MEM with 2% FCS and 5×10^10 TU of RGD-4C-β-gal, HWGF-β-gal, or fd-β-gal phage vectors (at 10^5 transducing units/cell in each case). Both cell lines express high levels of the integrin and MMP receptors for those targeting peptides. Phage were incubated with cells for 3 hr at 37° C., followed by a medium change to MEM plus 10% FCS. The cells were incubated for 72 hr at 37° C. to allow for β-gal gene expression. […]
(§3) In the cell culture transduction assay, β-gal expression was analyzed by immunofluorescence. For quantification of expression in cell culture, the transduced cells were washed with PBS and permeabilized with 0.2% Triton X-100 for five minutes on ice, followed by blocking with 1% BSA in PBS. […] The degree of β-gal gene expression was determined by counting fluorescent cells in at least ten fields under an inverted microscope (Nikon, Japan). Quantification of the β-gal activity in cell culture was measured as relative light units (RLU) in a luminometer and then normalized to the amount of protein in micrograms, as determined by the Lowry method in a protein assay kit (Bio-Rad Protein Assay®; Hercules, Calif.). […]

subcutaneous white fat = experiment: In vivo phage library screening for fat-homing peptides; parameters: species or system ob/ob mice; details: mouse
Experimental: In vivo phage-display screening of the CX7C library (C, cysteine; X, any amino acid) (Pasqualini et al., 2000; Arap et al., Nature Med. 8:121-127, 2002) for fat-homing peptides was performed (Pasqualini & Rouslahti 1996, Pasqualini et al., 2000). In each biopanning round, an adult ob/ob mouse was injected intravenously (tail vein) with 10^10 transducing units (TU) of the library. Phage (˜300 TU/g in round 1 increased to ˜10^4 TU/g in round 3) were recovered after 5 min of circulation by grinding subcutaneous white fat with a glass Dounce homogenizer, suspending the homogenate in 4° C. Dulbecco's Modified Eagle's medium (DMEM) containing proteinase inhibitors (DMEM-prin: 1 mM PMSF, 20 μg/ml aprotinin, and 1 μg/ml leupeptin) and washing with DMEM-prin. The lipid phase was discarded during the washes and only the solid-phase cellular material was used. Washed homogenates were incubated with host bacteria (log phase E. coli K91kan; OD600˜2). Bacterial cultures were plated onto Luria-Bertani agar plates containing 40 μg/ml tetracycline and 100 μg/ml kanamycin, incubated overnight at 37° C. and selected clones were bulk-amplified and used to precipitate phage for a subsequent round of biopanning. The sub-library amplified after the third round of panning was enriched for fat-specific binders using a subtraction step. […]

prohibitin = molecular target: T1, prohibitin (Mus musculus, UniProt P67778); experiment: Adipose receptor identification by binding and immunoprecipitation
T1 construct: from tissue; host or cells: mouse adipose tissue extract
T1 sequence (P67778 2-272): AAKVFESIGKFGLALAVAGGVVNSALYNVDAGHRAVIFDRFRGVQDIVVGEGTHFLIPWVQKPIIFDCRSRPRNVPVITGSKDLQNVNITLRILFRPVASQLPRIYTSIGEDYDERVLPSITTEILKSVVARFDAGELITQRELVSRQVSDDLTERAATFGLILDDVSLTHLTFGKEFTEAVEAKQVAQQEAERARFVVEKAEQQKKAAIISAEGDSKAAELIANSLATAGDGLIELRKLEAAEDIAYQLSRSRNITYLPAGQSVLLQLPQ
Experimental: A band of approximately 35,000 Daltons (35 kDa) was isolated from mouse adipose tissue extract that bound to […] (SEQ ID NO:81) conjugated to (KLAKLAK)2 (SEQ ID NO:1) (not shown). […] The 35 kDa band was analyzed by mass spectrometry, which identified three proteins present in the sample.
The three proteins included predominately a B cell receptor associated protein (prohibitin), apolipoprotein E, and the voltage dependent anion channel (VDAC). Further studies were performed by immunoprecipitation, using either […] (SEQ ID NO:81) or CARAC (SEQ ID NO:71) conjugated to […] (SEQ ID NO:1) and precipitating with commercially available antibodies.

white fat vasculature [3] = experiment: Peptide and phage localization in tissues; format: in vivo; details: intravenous, ob/ob mice
Experimental: as §1

white fat vasculature [4] = experiment: Peptide localization in tissues; format: in vivo, C57BL/6 mice
Experimental: as §1

KS1767 cells = experiment: Targeted phage vector transduction and peptide inhibition in cell culture; format: cell-based, human; details: cells pre-incubated with synthetic peptide
Experimental: as §2, §3

DU145 xenografts = experiment: Phage localization by anti-phage staining of tissues; format: in vivo, nude mice; details: 24 hour circulation
Experimental: To determine the specificity of the prostate tumor targeting peptides, 10^9 phage carrying the targeting peptide sequences […] (SEQ ID NO:83) and […] (SEQ ID NO:84) were injected into nude mice bearing DU145 xenografts. After 24 hour circulation, tissue samples were obtained from tumor and control organs (kidney, brain, lung and spleen). Tissue samples were washed immediately in DMAM and fixed in 10% formalin for 48 hours at room temperature. Thin sections were stained for phage using anti-phage antibody (1:500 dilution) and detected using the DAKO LSAB+ system. […] This may be due to the tendency of spleen tissue to trap phage and other foreign particles in general as part of the reticuloendothelial system.

[5] = test system: MDA-MB-435 breast carcinoma; experiment: Phage localization, separate study; details: in vivo

CC(C)C[C@@H](NC(=O)[C@@H](CCCCN)NC(=O)CNC(=O)CNC(=O)[C@@H]1CSSC[C@H](N)C(=O)N[C@@H](CCCCN)C(=O)NCC(=O)NCC(=O)N[C@@H](CCCNC(=N)N)C(=O)N[C@@H](C)C(=O)N[C@@H](CCCCN)C(=O)N[C@@H](CC(=O)O)C(=O)N1)C(=O)N[C@H](C)C(=O)N[C@H](CCCCN)C(=O)N[C@H](CC(C)C)C(=O)N[C@H](C)C(=O)N[C@H](CCCCN)C(=O)N[C@H](CCCCN)C(=O)N[C@H](CC(C)C)C(=O)N[C@H](C)C(=O)N[C@H](CCCCN)C(=O)N[C@H](CC(C)C)C(=O)N[C@H](C)C(=O)N[C@H](CCCCN)C(=O)O (H-CKGGRAKDCGG[dK][dL][dA][dK][dL][dA][dK][dK][dL][dA][dK][dL][dA][dK]-OH; disulfide 1-9)
toxicity [1]: No toxicity | abnormalities in other organs (adipose tissue): No abnormalities in other organs | mortality [2]: occasionally observed to result in mortality

CDCRGDCFC (also: cyclized) [RGD-4C]
inhibition of RGD-4C-β-gal phage transduction (MDA-MB-435 cells): greater than 99%

CKGGRAKDC
share of all clones identified in the screen (subcutaneous white fat): 4.5% | receptor identified (prohibitin; adipose tissue endothelial receptor): prohibitin | enrichment of prohibitin in precipitated fraction (prohibitin; compared to the CARAC precipitated fraction): over a ten-fold enrichment

CKGGRAKDC-FITC: 5-carboxyfluorescein (FITC)-conjugated cyclized CKGGRAKDC (disulfide 1-9 (inferred); also: FITC conjugate, site not given here)
localization to white fat vasculature (white fat vasculature [3]): localized to and was internalized by cells of white adipose vasculature | localization to white fat vasculature (white fat vasculature [4]; intravenous, C57BL/6 (leptin +/+) mice): specifically localized to blood vessels of subcutaneous and peritoneal white fat | co-localization with lectin-rhodamine in control tissue (white fat vasculature [4]; pancreatic tissue): No such co-localization was observed

CTTHWGFTLC (disulfide 1-10 (inferred))
inhibition of HWGF-β-gal phage transduction (KS1767 cells): greater than 90%

YRCTLNSPFFWEDMTHECHA
anti-phage staining of control kidney, brain or lung (DU145 xenografts): No staining was observed | anti-phage staining of normal spleen (DU145 xenografts): low level of anti-phage staining | anti-phage staining of tumor (DU145 xenografts): very heavy staining | phage localization [5]: no apparent localization

From patent US8507445B2, “Compositions and methods of use of targeting peptides for diagnosis and therapy of human cancer” (Board of Regents, The University of Texas System, priority 2002, dated 2013)
